# Experimental data: patent publication US7659277B2, “Ubiquitin ligase inhibitors and methods related thereto” (Proteologies, Ltd., priority 2003, dated 2010)
# Like-named read-outs stand apart in the source and are kept apart here.
# Tests used:
# [1] = target: T1, POSH (Homo sapiens, UniProt Q7Z6J0); experiment: IC50 assay procedure: GST-POSH auto-ubiquitination, homogeneous time-resolved fluorescence (Ub-cryptate / anti-GST XL665); type: biochemical; details: ubiquitin ligase activity of POSH; GST-POSH 33 nM, 30 min preincubation
# T1 construct: GST-POSH lot NB81/p.118 3.6 mg/ml; fused on or other part: GST tag, used for detection with anti-GST XL665
# T1 sequence (Q7Z6J0 1-269 limits assumed): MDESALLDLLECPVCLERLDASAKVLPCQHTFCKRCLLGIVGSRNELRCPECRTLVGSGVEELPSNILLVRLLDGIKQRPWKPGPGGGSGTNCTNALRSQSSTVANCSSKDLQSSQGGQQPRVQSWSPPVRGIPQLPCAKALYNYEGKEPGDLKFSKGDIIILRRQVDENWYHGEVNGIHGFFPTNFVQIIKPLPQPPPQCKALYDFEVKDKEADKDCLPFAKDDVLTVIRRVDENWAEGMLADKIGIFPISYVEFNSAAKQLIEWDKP
# Text: In certain preferred embodiments, agents that inhibit (or promote) the ubiquitin ligase activity of a ubiquitin ligase, such as POSH, may be identified using a homogenous time resolved fluorescence assay. Such an assay may employ a GST fused to the RING subunit of a ubiquitin ligase (e.g. POSH). Two flurophore-conjugated detection reagents are also used: anti-GSTXL665 and europium cryptate labeled ubiqutin. The ubiqutination of the ubiquitin ligase by ubiqutin cryptate and binding of the anti-GST tagged XL665 brings the fluorophores into close proximity allowing FRET reaction to occur. Accordingly, FRET serves as a measurement of ubiquitination of the ubiquitin ligase. An enzymatic system may be set up to provide activated ubiquitin, e.g., by providing ubiquitin, an E1 and an E2. Compounds that will not allow the FRET reaction are considered to be inhibitors.
# Step 3: establish IC 50 value measurements.
# Experimental Protocols: 1. HTS Screening Assay Procedure • Microplates 10109D to 10114D compounds at 1 mM. • (Controls in column 1). • All compounds were perchase from ChemBridge corporation: ChemBridge corporation 16981 Via Tazon, Suite G San Diego, Calif. 92127 a. Microplates Labeling • Put labels to 6 PS U-bottom clear microplate. • Put labels to 18 black microplates (triplicats). b. Microplates Preparation • Put 100 μl GST-POSH at 33 nM in wells of the clear PS U-bottom microplates (exept wells A1-D1). • Negative control: place 100 μl dH2O in wells A1-D1. • (Positive control: place 100 μl GST-POSH at 33 nM in wells E1-H1). • Put 8 μl enzymes solution ×4 to black microplates (column 1 to 11). c. Incubation of E3 with Compounds • Transfer 5 μl of compounds (at 1 mM) to the microplates containing 100 μl GST-POSH. • Add 5 μl of DMSO to controls column 1. • Incubation 30 minutes at RT. d. Enzymatic (Ubiquitination) and Final Steps • Distribution of (triplicate) 3×23 μl incubated compounds into 3 black microplates containing enzymatic solution (on splitting apparatus). • Incubation 30 minutes at 37° C. • Addition of 8 μl EDTA 0.5 M. • Incubation 15 (at least) minutes at RT. • Addition of 30 μl GST XL 665 in reconstitution buffer. • Incubation 45 (at least) minutes at RT. • Reading fluorescence. • Record results in computer. • Put sealing foil back on original and diluted microplates and keep at −70° C. • Always the plates must be closed with lids during each step. 2. […] Microplates Labeling • Put labels to 4 clear PP clear microplate (18.2 μM, 9.1 uM, 1.82 uM, 910 nM,). • Put labels to 5 clear PS U-bottom clear microplate 4.44 μM, 909, 444, 91 and 44 nM) • Put labels to 15 black microplates (triplicates). f. Original Microplate Dilutions • Put DMSO 40 μl to (18.2 μM, 1.82 uM plates) and 20 ul to (9.1 uM, 910 nM plates. • Mix by pipetation the original microplate (3× up and down 45 μl). • Transfer 10 μl of compounds from the original microplate (at 91 μM) to the next microplate (=18.2 μM) on splitting apparatus. • Mix by pipetation the 18.2 uM microplate (3× up and down 45 μl). • Transfer 20 μl of compounds from the 18.2 uM microplate to the next microplate (=9.1 μM) on splitting apparatus. • Mix by pipetation the 9.1 uM microplate (3× up and down 45 μl). • Transfer 10 μl of compounds from the 9.1 uM microplate to the next microplate (=1.82 μM) on splitting apparatus. • Mix by pipetation the 1.82 uM microplate (3× up and down 45 μl). • Transfer 20 μl of compounds from the 1.82 uM microplate to the next microplate (=910 nM) on splitting apparatus • Mix by pipetation. g. Microplates Preparation • Put 123 μl GST-POSH at 33 nM in wells of the 5 clear PS U-bottom clear microplates. • Positive control: place 123 μl GST-POSH at 33 nM in well A12-h12 13 μl DMSO. • Negative control: place 123 μl dH2O in well B1 and 13 μl DMSO. • Put 8 μl enzymes solution ×4 to 15 black microplates. • Controls: put 8 μl enzymes solution ×4 to wells A1 to F1. h. […]
# [2] = target: Hmdm2 (Homo sapiens, UniProt Q00987); experiment: Selectivity (% A in 1 μM), ubiquitin ligase activity of Hmdm2; type: biochemical; details: read-out: Selectivity (% A* in 1 μM) Hmdm2
# Chain of Hmdm2 (Q00987 whole entry): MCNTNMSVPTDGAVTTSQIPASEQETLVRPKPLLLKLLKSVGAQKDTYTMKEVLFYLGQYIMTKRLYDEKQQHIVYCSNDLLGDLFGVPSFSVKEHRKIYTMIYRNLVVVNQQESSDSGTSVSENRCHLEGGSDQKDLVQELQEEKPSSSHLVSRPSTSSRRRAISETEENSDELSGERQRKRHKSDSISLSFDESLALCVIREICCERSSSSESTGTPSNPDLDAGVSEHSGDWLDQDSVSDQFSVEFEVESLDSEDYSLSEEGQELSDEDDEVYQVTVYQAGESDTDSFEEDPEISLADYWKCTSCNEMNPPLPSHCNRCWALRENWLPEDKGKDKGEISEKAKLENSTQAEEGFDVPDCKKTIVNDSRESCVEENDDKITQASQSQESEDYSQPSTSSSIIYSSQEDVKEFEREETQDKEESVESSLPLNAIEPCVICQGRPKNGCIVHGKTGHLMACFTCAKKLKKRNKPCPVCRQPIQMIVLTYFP
# [3] = % activity at 1 μM compound, control is related to 100% activity, HTS protocol
structure (smiles),measurement,setting,value
CCCCCCOc1ccc(C=C2C(=O)NC(=S)NC2=O)cc1 [Compound 15],IC50,[1],500 nM
same,remaining activity at 1 µM,[2],90%
O=C1N=C(c2ccccc2)S/C1=C/c1ccc(-c2cccc([N+](=O)[O-])c2)o1 [Compound 36],IC50,[1],1000 nM
same,remaining activity at 1 µM,[2]; [3],71%
CC(C)(C)c1ccc(O)c(/N=C/C=C/c2cccc([N+](=O)[O-])c2)c1 [Compound 59],IC50,[1],500 nM
same,remaining activity at 1 µM,[2],112%
COc1ccc(CC(C)NCc2ccccc2Cl)cc1 (stereo not drawn) [Compound 107],IC50,[1],1000 nM
same,remaining activity at 1 µM,[2]; [3],113%
Oc1c(Br)cc(Br)cc1/C=N/c1ccc(Br)cn1 [Compound 61],IC50,[1],700 nM
same,remaining activity at 1 µM,[2]; [3],131%
COc1ccccc1N1C(=O)NC(=O)/C(=C\C=C\c2ccccc2)C1=O [Compound 10],IC50,[1],1000 nM
same,remaining activity at 1 µM,[2]; [3],116%
Cc1cc(/N=C/c2c(O)ccc3ccccc23)no1 [Compound 111],IC50,[1],1000 nM
same,remaining activity at 1 µM,[2]; [3],72%
O=C1C=CC(=O)N1c1ccc(OC(F)(F)C(F)F)c(N2C(=O)C=CC2=O)c1 [Compound 20],IC50,[1],900 nM
same,remaining activity at 1 µM,[2],132%
C=CCN1C(=O)NC(=O)/C(=C\c2ccccc2)C1=O [Compound 2],IC50,[1],700 nM
same,remaining activity at 1 µM,[2],108%
C=CCN1C(=O)NC(=O)/C(=C/c2ccc(F)cc2)C1=O [Compound 12],IC50,[1],1000 nM
same,remaining activity at 1 µM,[2]; [3],99%
O=[N+]([O-])c1ccc2c(c1)Cc1cc(/N=C/c3ccc(Br)cc3)ccc1-2 [Compound 67],IC50,[1],1000 nM
same,remaining activity at 1 µM,[2]; [3],104%
O=C1NC(=O)C(=Cc2ccc(-c3cc(Cl)ccc3Cl)o2)C(=O)N1 [Compound 1],IC50,[1],200 nM
same,remaining activity at 1 µM,[2],105%
OCc1cccc(/N=C/c2cccc(O)c2O)c1 [Compound 57],IC50,[1],300 nM
same,remaining activity at 1 µM,[2],80%
O=C1C(=Cc2ccc(-c3ccc(Br)cc3)o2)C(=O)c2ccccc21 [Compound 38],IC50,[1],400 nM
same,remaining activity at 1 µM,[2],111%
Cc1cc(I)ccc1NCn1nnc2ccccc21 [Compound 105],IC50,[1],800 nM
same,remaining activity at 1 µM,[2]; [3],102%
Cc1c(C(=O)/C=C/c2ccccc2)c2cc(O)ccc2n1C [Compound 75],IC50,[1],400 nM
same,remaining activity at 1 µM,[2],113%
O=C1C(=Cc2ccco2)C(=O)N(c2ccccc2)C(=S)N1c1ccccc1 [Compound 13],IC50,[1],1000 nM
same,remaining activity at 1 µM,[2]; [3],11%
O=C(C(Cl)Cl)N1CCN(c2ccc([N+](=O)[O-])cc2)CC1 [Compound 79],IC50,[1],900 nM
same,remaining activity at 1 µM,[2]; [3],94%
O=C1S/C(=C/c2ccc(-c3ccc([N+](=O)[O-])cc3Cl)o2)C(=O)N1c1ccccc1 [Compound 27],IC50,[1],700 nM
Cc1ccc(/N=C/c2cc(Br)cc(Br)c2O)c(C)c1 [Compound 54],IC50,[1],500 nM
same,remaining activity at 1 µM,[2],124%
C=CCN1C(=O)/C(=C/c2c3ccccc3cc3ccccc23)SC1=S [Compound 109],IC50,[1],500 nM
same,remaining activity at 1 µM,[2],106%
COc1ccc(/C=N/c2ccc(Nc3ccccc3)cc2)c2ccccc12 [Compound 55],IC50,[1],500 nM
same,remaining activity at 1 µM,[2],58%
Cc1cc([N+](=O)[O-])ccc1/N=C/c1ccc[nH]1 [Compound 70],IC50,[1],600 nM
same,remaining activity at 1 µM,[2],125%
